This note sets out measurements from patent publication US20250127907A1, “PARP INHIBITORS” (Stablix, Inc., priority 2023, published 2025).

Structures are written as SMILES. Bounds are passed on as bounds.

The target of assay [1] is T1, PARP1 (Homo sapiens, UniProt P09874). Put plainly: PARP1-enzyme assay (NAD/NADH-Glo biochemical assay). To be noted: recombinant PARP1, NAD+ consumption. How it is done: The PARP enzyme catalyzes the transfer of ADP-Ribose from NAD+ onto PAR chains/histone substrates. The catalytic cycle is monitored indirectly with the NAD/NADH-Glo Assay kit from Promega. […] NAD+ consumed is determined by comparison to the no enzyme control.
• Recombinant PARP1 • NAD+/NAHD-Glow assay Kit • Activated DNA, 10 μg/mL • NAD+(Nicotinamide Adenine Dinucleotide), 500 nM • Protein substrate for PARP1: Core Histone from chicken, 10 μg/mL
The letter codes for the PARP1-enzyme assay include: A (<1 nM), B (>1-10 nM), C (>10-100 nM), D (>100-1000 nM), E (>1000 nM), and “-” is not tested. The letter codes for the PARP trapping assay, and parylation assay include: A (<10 nM), B (>10-100 nM), C (>100-1000 nM), […], E (>10000 nM), and “-” is not tested.
Target sequence in this assay (P09874 whole entry, species assumed): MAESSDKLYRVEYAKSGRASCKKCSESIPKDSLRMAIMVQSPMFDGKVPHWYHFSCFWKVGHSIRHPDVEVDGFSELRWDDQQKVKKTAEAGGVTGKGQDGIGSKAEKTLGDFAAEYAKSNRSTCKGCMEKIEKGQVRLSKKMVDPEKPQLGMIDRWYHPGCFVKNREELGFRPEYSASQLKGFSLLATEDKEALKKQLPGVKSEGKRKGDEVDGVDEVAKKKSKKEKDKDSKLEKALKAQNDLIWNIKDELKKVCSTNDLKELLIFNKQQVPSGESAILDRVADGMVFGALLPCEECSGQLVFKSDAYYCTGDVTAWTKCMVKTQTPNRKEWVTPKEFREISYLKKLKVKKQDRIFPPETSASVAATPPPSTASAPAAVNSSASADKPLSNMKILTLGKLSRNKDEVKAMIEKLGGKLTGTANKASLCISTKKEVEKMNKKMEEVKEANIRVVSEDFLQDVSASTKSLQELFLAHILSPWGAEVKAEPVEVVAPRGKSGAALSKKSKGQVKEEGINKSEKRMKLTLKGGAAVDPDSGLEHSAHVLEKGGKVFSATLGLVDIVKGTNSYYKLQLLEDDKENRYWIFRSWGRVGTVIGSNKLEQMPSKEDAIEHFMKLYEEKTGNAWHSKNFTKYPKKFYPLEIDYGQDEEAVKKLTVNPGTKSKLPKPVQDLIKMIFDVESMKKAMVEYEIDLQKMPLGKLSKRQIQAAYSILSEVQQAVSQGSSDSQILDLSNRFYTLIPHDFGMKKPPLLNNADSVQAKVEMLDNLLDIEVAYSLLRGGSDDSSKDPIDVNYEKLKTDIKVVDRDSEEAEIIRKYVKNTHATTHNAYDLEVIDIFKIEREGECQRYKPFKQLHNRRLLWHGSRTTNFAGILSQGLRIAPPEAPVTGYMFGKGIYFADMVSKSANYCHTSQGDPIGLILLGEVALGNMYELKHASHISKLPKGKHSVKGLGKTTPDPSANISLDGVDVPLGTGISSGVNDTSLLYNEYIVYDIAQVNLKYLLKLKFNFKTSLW

For assay [2], the system named is Poly/Mono-ADP Ribose in U2OS cells. Put plainly: PAR in cell western assay (parylation) in U2OS cells. Type of assay: cell-based. Particulars: Homo sapiens; U2OS cells, 6 hrs, 2 mM H2O2; read-out: Parylation (U2OS). The method in brief: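 U2OS cells treated with compound for 6 h, then 2 mM H2O2 for 10 min to induce DNA damage. After methanol fixation, cells stained overnight at 4 °C with anti-mono/poly-ADP-ribose antibody and imaged by infrared in-cell western, normalized to CellTag 700; reported as % control inhibition.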

The test system of assay [3] is HCC1806 cells. The experiment in a line: Cell proliferation assay (HCC1806). Type of assay: cell-based. Particulars: Homo sapiens, 168 h, 7 days.
The test system of assay [4] is MDA-MB-436 cells. Put plainly: Cell proliferation assay (MDA-MB-436). Format: cell-based. Particulars: Homo sapiens, 168 h, 7 days.
The target in assay [5] is T1, PARP1. Put plainly: PARP trapping assay in U2OS cells. Format: cell-based. On the set-up: endogenous in cells; host or cells: U2OS. To be noted: U2OS cells, MMS, 4 hrs; read-out: PARP Trapping (U2OS). The method, boiled down:
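U2OS cells co-treated with compounds and MMS for 4 h, then soluble proteins extracted with 0.5% Triton X-100, MeOH-fixed and immunostained for PARP1. Chromatin-bound PARP1 quantified as AF488 intensity per DAPI-segmented nucleus; potencies reported as letter-code bins.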
Target sequence in this assay (P09874 whole entry): as the sequence (P09874 whole entry, species assumed) above

Assay [6] deals with A2780 cells. Put plainly: Cell proliferation assay (A2780). Type of assay: cell-based. To be noted: Homo sapiens, 168 h, 7 days.

For the compound `CCOc1cc(OC)ccc1CNCC(=O)N1CCCC(c2cccc(C(=O)N[C@@H](C(=O)NCc3cn(CCNCC(=O)N4CCN(C(=O)c5cc(Cc6n[nH]c(=O)c7ccccc67)ccc5F)CC4)nn3)C3CCCCC3)c2)C1` (stereo partly drawn) [Compound I-29], the IC50 in assay [1] is under 1 nM; in assay [2], under 10 nM; in assay [3], under 10 nM; in assay [4] it was 1000 to 10000 nM.

Take `Cc1sc(CN2CCCC2c2nnc3n2CCCCC3)nc1C12CC(C(=O)NCCOCCOCCOCCNCC(=O)N3CCN(C(=O)c4cc(Cc5n[nH]c(=O)c6ccccc56)ccc4F)CC3)(C1)C2` (stereo not drawn) [Compound I-194]: the IC50 was under 1 nM in assay [1]; 100 to 1000 nM in assay [2]; under 10 nM in assay [3]; 100 to 1000 nM in assay [4]; over 10000 nM in assay [5].

Regarding `Cc1sc(CN2CCCC2c2nnc3n2CCCCC3)nc1C12CC(C(=O)NCCOCCOCCOCCOCCNCC(=O)N3CCN(C(=O)c4cc(Cc5n[nH]c(=O)c6ccccc56)ccc4F)CC3)(C1)C2` (stereo not drawn) [Compound I-195], the IC50 in assay [1] is under 1 nM; in assay [2], 10 to 100 nM; in assay [3] it was under 10 nM; in assay [4] it was 100 to 1000 nM; in assay [5] it was 1000 to 10000 nM.

For `CCc1cccc(-c2cnc(C(=O)N3CCN(CC4CCN(CC(=O)N5CCN(C(=O)c6cc(Cc7n[nH]c(=O)c8ccccc78)ccc6F)CC5)CC4)CC3)c(NC(=O)CNCc3cc(C)no3)c2)c1` [Compound I-233], the IC50 in assay [1] is under 1 nM; in assay [2], 10 to 100 nM; in assay [3] it was under 10 nM; in assay [4], 10 to 100 nM; in assay [5], 100 to 1000 nM.

For `CCc1cccc(-c2cnc(C(=O)NCCOCCNCC(=O)N3CCN(C(=O)c4cc(Cc5n[nH]c(=O)c6ccccc56)ccc4F)CC3)c(NC(=O)CNCc3cccc(C)c3)c2)c1` [Compound I-63], the IC50 in assay [1] was under 1 nM; in assay [2], 100 to 1000 nM; in assay [6] it was 10 to 100 nM; in assay [3] it was 100 to 1000 nM; in assay [4], 100 to 1000 nM; in assay [5], 100 to 1000 nM.

In the case of `CCc1cccc(-c2cnc(C(=O)N3CCC(CN4CCN(CC(=O)N5CCN(C(=O)c6cc(Cc7n[nH]c(=O)c8ccccc78)ccc6F)CC5)CC4)CC3)c(N)c2)c1` [Compound I-366], the IC50 in assay [1] was under 1 nM; in assay [2] it was 100 to 1000 nM; in assay [6], 100 to 1000 nM; in assay [3], 100 to 1000 nM; in assay [4], 100 to 1000 nM; in assay [5] it was 100 to 1000 nM.

As for `O=C(N[C@@H](C(=O)N1CCN(CC2CCN(CC(=O)N3CCN(C(=O)c4cc(Cc5n[nH]c(=O)c6ccccc56)ccc4F)CC3)CC2)CC1)C1CCCCC1)c1cccc(C2CCCN(C(=O)C3CC3)C2)c1` (stereo partly drawn) [Compound I-962], the IC50 in assay [1] was under 1 nM; in assay [2] it was 10 to 100 nM; in assay [6], 100 to 1000 nM; in assay [3], 100 to 1000 nM; in assay [4] it was 10 to 100 nM; in assay [5], 100 to 1000 nM.

For the compound `COC12CCC(CNCC(=O)N3CCCC(c4cccc(C(=O)N[C@@H](C(=O)N5CCN(CC6CCN(CC(=O)N7CCN(C(=O)c8cc(Cc9n[nH]c(=O)c%10ccccc9%10)ccc8F)CC7)CC6)CC5)C5CCCCC5)c4)C3)(CC1)OC2` (stereo partly drawn) [Compound I-157], the IC50 in assay [1] was under 1 nM; in assay [2] it was 100 to 1000 nM; in assay [3], under 10 nM; in assay [4], 10 to 100 nM; in assay [5] it was 100 to 1000 nM.

For `CCOc1cc(OC)ccc1CNCC(=O)N1CCCC(c2cccc(C(=O)N[C@@H](C(=O)N3CCN(CC4CCN(CC(=O)N5CCN(C(=O)c6cc(Cc7n[nH]c(=O)c8ccccc78)ccc6F)CC5)CC4)CC3)C3CCCCC3)c2)C1` (stereo partly drawn) [Compound I-28], the IC50 in assay [1] is under 1 nM; in assay [2] it was 100 to 1000 nM; in assay [6], 1000 to 10000 nM; in assay [3], 100 to 1000 nM; in assay [4], 10 to 100 nM; in assay [5], 100 to 1000 nM.

Regarding `CC(C)(C)OC(=O)N[C@@H](C(=O)N1CCC(OC2CCN(CC(=O)N3CCN(C(=O)c4cc(Cc5n[nH]c(=O)c6ccccc56)ccc4F)CC3)CC2)CC1)C1CCCCC1` [Compound I-787], the IC50 is under 1 nM in assay [1]; 10 to 100 nM in assay [2]; 10 to 100 nM in assay [6]; 10 to 100 nM in assay [3]; under 10 nM in assay [4]; 10 to 100 nM in assay [5].
